Measured values published in ChEMBL document CHEMBL1201862, “PubChem BioAssay data set” (2004).
The source made the active and inactive calls.

Experiments:
[1] = molecular target: T1, Fibrinogen beta chain (Homo sapiens, UniProt P02675); assay: Fluorescence polarization-based biochemical high throughput dose response assay to identify inhibitors that disrupt the binding of a cyclic peptide (Tn6) to the fibrin proteolytic product D-Dimer and fragment E complex [DD(E )].
[2] = molecular target: T2, Protein skinhead-1 (Caenorhabditis elegans, UniProt P34707); type: functional
T2 sequence (P34707 whole entry): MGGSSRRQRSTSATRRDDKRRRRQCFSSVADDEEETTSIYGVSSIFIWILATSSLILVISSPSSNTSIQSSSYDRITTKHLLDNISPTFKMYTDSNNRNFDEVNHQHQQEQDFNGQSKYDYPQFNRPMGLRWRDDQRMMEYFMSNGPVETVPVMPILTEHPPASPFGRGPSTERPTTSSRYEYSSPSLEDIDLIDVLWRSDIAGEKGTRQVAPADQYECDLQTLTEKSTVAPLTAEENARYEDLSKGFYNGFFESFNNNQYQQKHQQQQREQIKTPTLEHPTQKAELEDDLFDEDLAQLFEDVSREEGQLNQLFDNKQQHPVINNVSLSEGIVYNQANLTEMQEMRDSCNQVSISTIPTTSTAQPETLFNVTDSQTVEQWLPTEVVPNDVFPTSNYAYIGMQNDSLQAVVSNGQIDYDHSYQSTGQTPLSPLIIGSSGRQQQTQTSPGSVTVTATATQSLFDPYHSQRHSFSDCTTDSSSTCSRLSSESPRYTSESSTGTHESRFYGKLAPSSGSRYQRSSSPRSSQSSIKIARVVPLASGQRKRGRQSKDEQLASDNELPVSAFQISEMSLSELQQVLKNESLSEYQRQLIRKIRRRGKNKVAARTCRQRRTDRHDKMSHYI

[3] = molecular target: T1, Fibrinogen beta chain; assay: Fluorescence polarization-based biochemical high throughput dose response assay to identify inhibitors that disrupt the binding of a cyclic peptide (Tn7) to the fibrin proteolytic product D-Dimer and fragment E complex [DD(E )].
[4] = molecular target: Protein Wnt-3a (Mus musculus, UniProt P27467); assay: antagonism of Wnt3a pathway luciferase reporter – Wnt-LIGHT cells, luminescence, selectivity assay for Gli-SUFU antagonist project, dose response (AID 651570); type: functional; details: read-out: IC50_Mean;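 also: Wnt-LIGHT reporter cells stimulated with conditioned medium from Wnt3a-producing cells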
Chain of Protein Wnt-3a (P27467 whole entry): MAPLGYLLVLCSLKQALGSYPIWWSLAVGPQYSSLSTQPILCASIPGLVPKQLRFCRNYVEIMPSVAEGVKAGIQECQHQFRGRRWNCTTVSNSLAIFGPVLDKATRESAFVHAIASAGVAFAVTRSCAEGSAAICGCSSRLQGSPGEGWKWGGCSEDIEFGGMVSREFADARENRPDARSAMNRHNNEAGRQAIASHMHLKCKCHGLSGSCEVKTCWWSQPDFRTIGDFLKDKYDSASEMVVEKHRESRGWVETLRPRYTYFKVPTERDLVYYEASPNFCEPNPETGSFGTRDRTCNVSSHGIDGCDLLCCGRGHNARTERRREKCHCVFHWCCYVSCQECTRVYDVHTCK

[5] = reduction of Shn3 3'UTR-driven luciferase in osteoblasts – cell-based, Clone20 osteoblasts, firefly luciferase, cherry-picked, dose response (AID 624132); type: functional;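 also: firefly luciferase luminescence from reporter carrying the Shn3 3'UTR in osteoblasts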
[6] = non-specific 3'UTR reporter inhibition in Clone20-Shn3RL – cell-based, Renilla luciferase, cherry-picked, counter-screen for Shn3 inhibitor project, dose response (AID 624133); type: functional
[7] = loss of viability in HepG2 cells – cell-based, CellTiter-Glo, cherry-picked, cytotoxicity control for Shn3 inhibitor project, dose response (AID 624134); type: functional
[8] = Shn3 3'UTR reporter signal decrease – cell-based, Clone20 osteoblasts, firefly luciferase, cherry-pick, set 2, Schnurri-3 inhibitor project, dose response (AID 720490); type: functional;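 also: actives lower the luminescence signal as inhibitors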
[9] = molecular target: Peroxisome proliferator-activated receptor gamma/Nuclear receptor corepressor 2 (Homo sapiens, UniProt P37231+Q9Y618); assay: Counterscreen for NR2E3 inverse agonists: TR-FRET-based biochemical high throughput dose response assay to identify inverse agonists of the interaction between peroxisome proliferator-activated receptor gamma (PPARg) and nuclear receptor co-repressor 2 (NCOR2).; type: functional
Chain of Peroxisome proliferator-activated receptor gamma/Nuclear receptor corepressor 2 (P37231 whole entry, the tested form may be a part): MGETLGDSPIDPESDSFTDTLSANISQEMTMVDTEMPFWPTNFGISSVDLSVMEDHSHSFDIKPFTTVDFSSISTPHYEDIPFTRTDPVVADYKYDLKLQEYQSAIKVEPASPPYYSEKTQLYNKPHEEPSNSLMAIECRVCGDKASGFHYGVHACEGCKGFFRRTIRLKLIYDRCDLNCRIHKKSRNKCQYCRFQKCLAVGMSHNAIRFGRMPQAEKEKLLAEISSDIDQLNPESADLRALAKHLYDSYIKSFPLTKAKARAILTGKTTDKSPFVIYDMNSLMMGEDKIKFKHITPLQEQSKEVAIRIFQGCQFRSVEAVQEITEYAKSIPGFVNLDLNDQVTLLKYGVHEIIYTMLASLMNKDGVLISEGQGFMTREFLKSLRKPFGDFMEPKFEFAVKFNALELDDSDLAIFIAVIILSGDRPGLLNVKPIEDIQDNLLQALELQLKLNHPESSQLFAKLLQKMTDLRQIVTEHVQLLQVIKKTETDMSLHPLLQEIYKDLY
Chain of Peroxisome proliferator-activated receptor gamma/Nuclear receptor corepressor 2 (Q9Y618 whole entry, the tested form may be a part): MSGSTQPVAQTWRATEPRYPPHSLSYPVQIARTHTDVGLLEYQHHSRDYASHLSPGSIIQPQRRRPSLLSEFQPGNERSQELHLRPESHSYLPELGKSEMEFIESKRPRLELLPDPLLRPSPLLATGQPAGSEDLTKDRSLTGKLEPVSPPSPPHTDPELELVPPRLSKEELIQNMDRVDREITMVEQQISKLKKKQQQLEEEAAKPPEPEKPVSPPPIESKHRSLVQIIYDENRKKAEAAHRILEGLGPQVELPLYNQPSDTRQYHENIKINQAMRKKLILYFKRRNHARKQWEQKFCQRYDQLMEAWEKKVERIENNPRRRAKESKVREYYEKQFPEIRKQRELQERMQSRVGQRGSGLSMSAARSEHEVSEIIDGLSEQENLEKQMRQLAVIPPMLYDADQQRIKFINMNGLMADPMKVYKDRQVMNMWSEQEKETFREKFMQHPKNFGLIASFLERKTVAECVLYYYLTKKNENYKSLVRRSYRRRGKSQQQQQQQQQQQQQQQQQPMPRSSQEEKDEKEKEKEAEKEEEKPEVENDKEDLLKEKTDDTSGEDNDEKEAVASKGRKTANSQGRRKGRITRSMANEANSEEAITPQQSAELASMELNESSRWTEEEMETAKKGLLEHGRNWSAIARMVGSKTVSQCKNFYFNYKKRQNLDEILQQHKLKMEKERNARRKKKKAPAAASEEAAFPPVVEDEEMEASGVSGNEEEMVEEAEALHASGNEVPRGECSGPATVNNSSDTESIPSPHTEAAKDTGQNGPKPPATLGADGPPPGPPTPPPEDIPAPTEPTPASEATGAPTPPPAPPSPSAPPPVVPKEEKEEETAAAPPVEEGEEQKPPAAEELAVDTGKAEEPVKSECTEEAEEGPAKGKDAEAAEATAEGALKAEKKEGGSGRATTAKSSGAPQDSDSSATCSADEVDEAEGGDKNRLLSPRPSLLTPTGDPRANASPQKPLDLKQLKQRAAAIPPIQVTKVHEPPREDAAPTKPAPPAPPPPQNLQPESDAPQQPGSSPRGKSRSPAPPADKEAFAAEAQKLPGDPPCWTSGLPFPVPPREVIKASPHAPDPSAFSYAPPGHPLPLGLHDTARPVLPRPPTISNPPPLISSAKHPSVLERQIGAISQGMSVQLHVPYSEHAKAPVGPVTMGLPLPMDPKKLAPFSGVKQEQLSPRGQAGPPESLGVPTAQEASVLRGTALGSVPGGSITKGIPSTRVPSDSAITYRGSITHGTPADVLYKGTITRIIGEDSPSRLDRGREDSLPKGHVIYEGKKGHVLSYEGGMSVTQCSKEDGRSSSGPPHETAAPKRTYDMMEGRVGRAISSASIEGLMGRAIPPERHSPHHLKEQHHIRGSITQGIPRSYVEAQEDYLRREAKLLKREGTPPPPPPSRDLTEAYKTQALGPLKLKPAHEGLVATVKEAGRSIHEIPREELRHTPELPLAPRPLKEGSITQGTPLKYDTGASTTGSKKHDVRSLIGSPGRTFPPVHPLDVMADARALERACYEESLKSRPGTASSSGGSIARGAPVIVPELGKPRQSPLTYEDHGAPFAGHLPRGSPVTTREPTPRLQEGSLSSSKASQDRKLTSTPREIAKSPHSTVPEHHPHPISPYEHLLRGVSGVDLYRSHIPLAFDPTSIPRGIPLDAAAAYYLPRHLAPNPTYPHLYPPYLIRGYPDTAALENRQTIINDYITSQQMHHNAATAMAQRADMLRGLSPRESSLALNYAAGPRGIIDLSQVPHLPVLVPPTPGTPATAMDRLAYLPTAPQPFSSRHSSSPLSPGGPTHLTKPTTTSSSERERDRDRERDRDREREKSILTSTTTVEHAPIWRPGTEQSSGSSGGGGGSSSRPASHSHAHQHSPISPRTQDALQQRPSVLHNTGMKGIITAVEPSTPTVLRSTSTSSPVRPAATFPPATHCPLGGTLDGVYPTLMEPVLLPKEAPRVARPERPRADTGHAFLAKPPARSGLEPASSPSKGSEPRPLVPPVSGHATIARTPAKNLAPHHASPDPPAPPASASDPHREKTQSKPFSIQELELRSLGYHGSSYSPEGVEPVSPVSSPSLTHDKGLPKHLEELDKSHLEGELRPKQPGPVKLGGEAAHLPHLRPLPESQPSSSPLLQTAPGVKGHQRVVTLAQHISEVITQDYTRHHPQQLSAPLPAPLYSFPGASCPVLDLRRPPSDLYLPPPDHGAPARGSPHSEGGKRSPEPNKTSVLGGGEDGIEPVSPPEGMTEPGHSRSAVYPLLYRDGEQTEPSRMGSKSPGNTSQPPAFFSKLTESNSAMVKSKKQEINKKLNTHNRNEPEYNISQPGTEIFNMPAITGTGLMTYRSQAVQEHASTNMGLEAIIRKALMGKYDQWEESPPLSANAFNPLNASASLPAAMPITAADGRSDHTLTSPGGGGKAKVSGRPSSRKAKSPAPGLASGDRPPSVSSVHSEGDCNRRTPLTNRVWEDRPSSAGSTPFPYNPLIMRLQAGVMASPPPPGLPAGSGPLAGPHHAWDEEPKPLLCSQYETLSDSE

[10] = molecular target: E3 ubiquitin-protein ligase UHRF1 (Homo sapiens, UniProt Q96T88); assay: Counterscreen for inhibitors of 5-meCpG-binding domain protein 2 (MBD2): TRFRET-based biochemical high throughput dose response assay to identify inhibitors of binding of ubiquitin-like with PHD and ring finger domains 1 (UHRF1) to methylated oligonucleotide.
[11] = molecular target: T3, Small ubiquitin-related modifier 1 (Homo sapiens, UniProt P63165); assay: SUMO1 protein-protein binding blockers, potency – biochemical, FRET, dose response (AID 624383); type: functional; details: read-out: IC50_Mean
T3 sequence (P63165 whole entry): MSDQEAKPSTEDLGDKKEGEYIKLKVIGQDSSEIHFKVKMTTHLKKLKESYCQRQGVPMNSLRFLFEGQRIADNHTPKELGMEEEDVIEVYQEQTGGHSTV

[12] = molecular target: T3, Small ubiquitin-related modifier 1; assay: SUMO1 protein interaction blockers, potency – biochemical, fluorescence polarization, uHTS hits, dose response (AID 624382); type: functional; details: read-out: IC50_Mean
[13] = molecular target: Photoreceptor-specific nuclear receptor (Homo sapiens, UniProt Q9Y5X4); assay: ligands suppressing NR2E3 nuclear receptor activity – biochemical, TR-FRET, dose response (AID 463256); type: functional
Chain of Photoreceptor-specific nuclear receptor (Q9Y5X4 whole entry, the tested form may be a part): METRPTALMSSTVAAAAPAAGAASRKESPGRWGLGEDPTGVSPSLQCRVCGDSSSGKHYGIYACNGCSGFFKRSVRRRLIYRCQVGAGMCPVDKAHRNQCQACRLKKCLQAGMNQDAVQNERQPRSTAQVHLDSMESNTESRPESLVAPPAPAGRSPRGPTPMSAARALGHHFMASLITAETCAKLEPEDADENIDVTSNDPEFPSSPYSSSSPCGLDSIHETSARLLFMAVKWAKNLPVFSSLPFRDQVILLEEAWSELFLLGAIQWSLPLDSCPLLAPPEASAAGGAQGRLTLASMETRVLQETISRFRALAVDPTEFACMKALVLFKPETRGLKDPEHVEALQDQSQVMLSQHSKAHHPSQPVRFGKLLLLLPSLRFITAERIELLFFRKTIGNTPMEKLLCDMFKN

[14] = molecular target: T4, Oxysterols receptor LXR-beta (Homo sapiens, UniProt P55055); assay: LXR agonists, Gal4 luciferase reporter, dose response, counter-screen for ssDAF-12 agonist project, cell-based, luminescence, HEK293, S. stercoralis campaign (AID 720737); type: functional; details: read-out: IC50 (the source's name)
T4 sequence (P55055 whole entry): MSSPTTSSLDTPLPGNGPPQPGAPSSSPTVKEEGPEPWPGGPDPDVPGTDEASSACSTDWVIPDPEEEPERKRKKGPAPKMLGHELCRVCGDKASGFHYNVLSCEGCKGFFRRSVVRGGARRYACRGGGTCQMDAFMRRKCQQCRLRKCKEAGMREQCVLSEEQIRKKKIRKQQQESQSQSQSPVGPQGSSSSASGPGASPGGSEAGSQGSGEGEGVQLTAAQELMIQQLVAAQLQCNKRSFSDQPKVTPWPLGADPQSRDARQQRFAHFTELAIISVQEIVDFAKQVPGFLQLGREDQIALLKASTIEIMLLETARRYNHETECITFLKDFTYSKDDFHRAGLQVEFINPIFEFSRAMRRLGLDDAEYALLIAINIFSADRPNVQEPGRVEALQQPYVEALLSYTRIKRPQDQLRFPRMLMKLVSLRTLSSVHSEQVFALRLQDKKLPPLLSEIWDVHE

[15] = cells
[16] = Luminescence-based cell-based high throughput dose response assay to identify activators of the DAF-12 from the parasite S. stercoralis (ssDAF-12).; type: functional
[17] = test system: HT-1080; assay: HT1080 cell viability loss – fluorescence readout (AID 620); type: functional, cell-based; details: Homo sapiens
[18] = molecular target: Luciferin 4-monooxygenase (Photinus pyralis, UniProt P08659); assay: Counter Screen for Luciferase-based Assay Positives. [Related pubchem assays: 620, 618, 411 ]
[19] = molecular target: T4, Oxysterols receptor LXR-beta; type: functional, cell-based
[20] = P. falciparum Dd2 growth inhibitors, dose response, SYBR Green, cherry-picked samples (AID 1159567); type: functional, cell-based
[21] = toxicity to human hepatoma HepG2 cells – cell-based, cherry-picked samples, cytotoxicity control, dose response (AID 1159577); type: functional
[22] = PAX5 cellular inhibition readout – cell-based, plate reader, dry powder samples, selectivity assay for PAX8 inhibitor project, dose response (AID 743047); type: functional;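 also: HEK293 cells carrying a Pax5 driven CD19 promoter luciferase reporter; potency of inhibitors that lower reporter luminescence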
[23] = growth inhibition of PfATP4-mutant resistant parasites – NITD609-resistant line, SYBR Green, dry powder, dose response (AID 1159571); type: functional, cell-based;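 also: parasites synchronized at ring stage by sorbitol before testing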
[24] = COV434 cell viability loss – plate reader, dry powder, SA7, cytotoxicity control for PAX8 inhibitor project, dose response (AID 743145); type: functional, cell-based
[25] = PAX8-dependent cell viability loss – plate reader, dry powder, dose response (AID 743049); type: functional, cell-based
[26] = COV362 cell viability loss – plate reader, dry powder, SA12, cytotoxicity control for PAX8 inhibitor project, dose response (AID 743144); type: functional, cell-based
[27] = molecular target: Paired box protein Pax-8 (Homo sapiens, UniProt Q06710); assay: PAX8 transcriptional activity inhibition in RMG-I – RMG-I cells, luciferase, cherry-pick, dose response (AID 687027); type: functional, cell-based;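 also: luciferase reporter driven by Pax8 target thyroperoxidase promoter measured by SteadyGlo luminescence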
Chain of Paired box protein Pax-8 (Q06710 whole entry): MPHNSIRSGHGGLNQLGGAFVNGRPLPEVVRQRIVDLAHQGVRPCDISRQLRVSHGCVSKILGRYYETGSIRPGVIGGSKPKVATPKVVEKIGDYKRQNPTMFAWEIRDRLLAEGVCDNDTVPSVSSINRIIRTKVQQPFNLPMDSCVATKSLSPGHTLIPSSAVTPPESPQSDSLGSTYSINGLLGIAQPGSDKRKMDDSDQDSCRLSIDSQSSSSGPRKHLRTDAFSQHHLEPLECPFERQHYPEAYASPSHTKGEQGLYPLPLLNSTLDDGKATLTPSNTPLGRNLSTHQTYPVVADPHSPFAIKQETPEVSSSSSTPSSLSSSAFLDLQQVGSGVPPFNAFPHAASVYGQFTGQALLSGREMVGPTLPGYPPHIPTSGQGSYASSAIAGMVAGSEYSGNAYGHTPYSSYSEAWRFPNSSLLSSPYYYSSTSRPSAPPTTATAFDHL

[28] = OVCAR-3 cell viability loss – plate reader, dry powder samples, PAX8 inhibitor project, dose response (AID 743044); type: functional, cell-based
[29] = OVCAR4 cell viability loss – plate reader, dry powder, SA11, cytotoxicity control for PAX8 inhibitor project, dose response (AID 743150); type: functional, cell-based; details: OVCAR-4
[30] = growth inhibition of yeast DHODH-expressing 3D7 parasites – SYBR Green, dry powder samples, dose response (AID 1159570); type: functional, cell-based;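 also: parasite growth measured after 72 hours of compound exposure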
[31] = inhibitors acting on PAX2 in cells – cell-based, plate reader, dry powder samples, selectivity assay for PAX8 inhibitor project, dose response (AID 743048); type: functional;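 also: HEK293 cells carrying a WT1 promoter luciferase reporter driven by expressed Pax2; potency is for inhibition of Pax2 driven reporter signal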
[32] = OV-90 cell viability loss – plate reader, dry powder, SA8, PAX8 inhibitor project, dose response (AID 743149); type: functional, cell-based
[33] = Dd2 malaria parasite growth inhibition potency – SYBR Green, dry powder samples, dose response (AID 1159566); type: functional, cell-based;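 also: potency for growth inhibition with lower SYBR green DNA signal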
[34] = molecular target: NAD-dependent protein deacylase sirtuin-5, mitochondrial (Homo sapiens, UniProt Q9NXA8); assay: blockers of sirtuin-5 peptide desuccinylation – biochemical, fluorescence imaging, cherry-pick, set 6, dose response (AID 720597)
[35] = HeLa cell viability loss – plate reader, dry powder, cytotoxicity control, dose response (AID 651946); type: functional, cell-based
[36] = inhibitors of non-replicating M. tuberculosis, dose response, luciferase, dry powder (AID 651619); type: functional; details: Mycobacterium tuberculosis
[37] = inhibitors of non-replicating M. tuberculosis, dose response, luciferase, dry powder (AID 651620); type: functional; details: Mycobacterium tuberculosis
[38] = viability loss in HEK293T cells – cell-based, CellTiter-Glo luminescence, dry powder, set 6, cytotoxicity control, dose response (AID 651949); type: functional; details: HEK293

T1 sequence (P02675 whole entry, the tested form may be a part): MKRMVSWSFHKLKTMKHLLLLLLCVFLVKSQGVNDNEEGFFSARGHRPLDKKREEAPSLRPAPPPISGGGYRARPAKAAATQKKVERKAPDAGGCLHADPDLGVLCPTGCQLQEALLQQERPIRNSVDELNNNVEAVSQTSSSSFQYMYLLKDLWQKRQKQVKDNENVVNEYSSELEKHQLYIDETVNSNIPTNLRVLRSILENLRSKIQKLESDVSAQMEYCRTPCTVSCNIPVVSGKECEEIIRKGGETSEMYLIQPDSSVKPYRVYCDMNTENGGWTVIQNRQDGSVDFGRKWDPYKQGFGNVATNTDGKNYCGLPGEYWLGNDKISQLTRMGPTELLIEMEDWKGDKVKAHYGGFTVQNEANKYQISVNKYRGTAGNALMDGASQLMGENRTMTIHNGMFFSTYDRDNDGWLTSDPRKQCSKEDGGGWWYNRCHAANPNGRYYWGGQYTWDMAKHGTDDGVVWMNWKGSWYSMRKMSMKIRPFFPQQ

## c1ccc2c(c1)CCN(C1=Nc3cccc4cccc1c34)C2
[1]
  IC50: 46.1 µM (inactive)
[2]
  IC50: > 100 µM (inactive)
[3]
  IC50: > 83.3 µM (inactive)

## CC(C)Cn1c(N)c(C(=O)COC(=O)C2Cc3ccccc3CN2S(C)(=O)=O)c(=O)n(C)c1=O (stereo not drawn)
[4]
  IC50: 6.31 µM (active)
[5]
  AC50: 0.72 µM (active)
[6]
  AC50: 4.76 µM (active)
[7]
  AC50: > 70 µM (inactive)
[8]
  AC50: 0.897 µM (active)

## N#CCC(=O)Nc1ccc(C(=O)OCC(=O)c2ccc3c(c2)NC(=O)CO3)cc1
[9]
  IC50: 4.39 µM (active)
[10]
  IC50: > 43.8 µM (inactive)
[11]
  IC50: 10.1 µM (active)
[12]
  IC50: > 66.6 µM (inactive)
[13]
  IC50: 4.46 µM (active)

## O=C1c2ccccc2C(=O)C1c1nccc2ccccc12
[14]
  EC50: > 67.5 µM (inactive)
[15]
  EC50: > 67.5 µM (inactive)
[16]
  IC50: > 67.5 µM (inactive)
[17]
  EC50: > 50 µM (not active)
[18]
  EC50: 1.3 µM (active)
[19]
  EC50: > 67.5 µM (inactive)

## N#C[C@H]1[C@@H](c2ccc(C#Cc3ccccc3F)cc2)[C@@H](CO)N1C(=O)C1CCCCC1
[20]
  AC50: 1.09 µM (active)
[21]
  AC50: > 39 µM (inactive)
[22]
  AC50: 13 µM (active)
[23]
  AC50: 1.23 µM (active)
[24]
  AC50: 20.3 µM (active)
[25]
  AC50: 7.86 µM (active)
[26]
  AC50: 36.2 µM (active)
[27]
  AC50: 3.09 µM (active)
[28]
  AC50: 16.1 µM (active)
[29]
  AC50: 3.01 µM (active)
[30]
  AC50: 0.8 µM (active)
[31]
  AC50: 14.2 µM (active)
[32]
  AC50: 27.7 µM (active)
[33]
  AC50: 0.584 µM (active)

## C[C@H](CO)N1C[C@H](C)[C@H](CN(C)C(=O)Cc2ccccc2)Oc2ncc(C3=CCCCC3)cc2C1=O
[34]
  AC50: > 30 µM (inactive)

## Fc1ccc(Cn2cc(CSc3nnc(-c4ccc(Cl)cc4)o3)nn2)cc1
[35]
  AC50: > 52 µM (inactive)
[36]
  IC90: 1 µM (active)
[37]
  IC90: 1 µM (active)
[38]
  AC50: > 52 µM (inactive)
